Measurements from ChEMBL document CHEMBL6120941, “Discovery of SIRT1-Activating Hydrogen Sulfide Donating Derivatives for Efficient Resistant of Myocardial Ischemic Injury” (J Med Chem, 2024).
Calls of active or inactive are those of the source. No cut-off for these calls is given here.

How the values were obtained:
[1] = tested on: H9c2; assay: Antioxidant activity against CoCl2-induced cellular hypoxia injury in rat H9c2 cells assessed as increase in Nrf2 level at 5 to 10 uM incubated for 24 hrs by Western blot analysis; assay type: functional, cell-based; settings: dose 5-10 µM
[2] = tested on: H9c2; assay: Cardioprotective activity against CoCl2-induced cellular hypoxia injury in rat H9c2 cells assessed as reduction in hypoxia-induced apoptosis at 5 to 10 uM incubated for 24 hrs by Hoechst 33258 nuclear staining based analysis; assay type: functional, cell-based; settings: dose 5-10 µM
[3] = tested on: H9c2; assay: Antioxidant activity against CoCl2-induced cellular hypoxia injury in rat H9c2 cells assessed as decrease in hypoxia-induced LDH release at 10 uM incubated for 24 hrs in presence of GSSG; assay type: functional, cell-based
[4] = tested on: H9c2; assay: Cardioprotective activity against CoCl2-induced cellular hypoxia injury in rat H9c2 cells assessed as increase in hypoxia-reduced ATP production in mitochondria at 5 to 10 uM incubated for 24 hrs by bioluminescence assay; assay type: functional, cell-based; settings: dose 5-10 µM
[5] = target: T1, NAD-dependent protein deacetylase sirtuin-1 (Rattus norvegicus) (UniProt A0A0G2JZ79); assay: Activation of SIRT1 in CoCl2-induced cellular hypoxia injury in rat H9c2 cells at 5 to 10 uM incubated for 24 hrs by immunofluorescence based analysis; assay type: cell-based; settings: filed as activator, dose 5-10 µM
T1 sequence (whole entry): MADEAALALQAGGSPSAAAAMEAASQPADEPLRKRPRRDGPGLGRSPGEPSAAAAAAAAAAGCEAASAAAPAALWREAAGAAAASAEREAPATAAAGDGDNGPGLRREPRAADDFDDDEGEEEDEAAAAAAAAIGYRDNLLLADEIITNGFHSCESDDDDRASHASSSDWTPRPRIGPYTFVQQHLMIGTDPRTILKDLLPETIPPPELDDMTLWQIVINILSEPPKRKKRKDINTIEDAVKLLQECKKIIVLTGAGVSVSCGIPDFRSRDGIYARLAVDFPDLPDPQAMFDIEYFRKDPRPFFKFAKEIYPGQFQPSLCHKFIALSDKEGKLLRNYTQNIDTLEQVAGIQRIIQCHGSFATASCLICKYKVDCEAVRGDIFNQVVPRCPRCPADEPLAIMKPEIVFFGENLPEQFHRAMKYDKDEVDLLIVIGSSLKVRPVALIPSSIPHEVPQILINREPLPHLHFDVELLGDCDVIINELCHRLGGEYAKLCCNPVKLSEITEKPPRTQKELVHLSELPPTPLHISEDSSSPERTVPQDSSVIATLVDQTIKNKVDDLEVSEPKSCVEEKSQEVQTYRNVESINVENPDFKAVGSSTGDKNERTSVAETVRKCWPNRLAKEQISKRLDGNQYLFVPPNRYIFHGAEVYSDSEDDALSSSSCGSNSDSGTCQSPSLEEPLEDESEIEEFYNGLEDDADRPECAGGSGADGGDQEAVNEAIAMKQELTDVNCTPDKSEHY

[6] = tested on: Rattus norvegicus; assay: Cardioprotective activity in myocardial ischemia Sprague-Dawley rat model assessed as myocardial infarction area at 10 mg/kg, IG treated for 7 days consecutively followed by ISO administration daily for 2 days consecutively by TTC staining based analysis (reference value: 32.65 %); assay type: functional; settings: time 9 day
[7] = tested on: H9c2; assay: Cardioprotective activity against CoCl2-induced cellular hypoxia injury in rat H9c2 cells assessed as cell viability at 0.625 uM incubated for 24 hrs by CCK-8 assay (reference value: 51.80 +/- 2.58 %); assay type: functional; settings: read-out: Activity
[8] = Induction of H2S release in PBS at pH 7.4 at 100 uM measured upto 60 mins by methylene blue method; assay type: functional
[9] = tested on: Rattus norvegicus; assay: Cardioprotective activity in myocardial ischemia Sprague-Dawley rat model assessed as improvement in cell volume size at 10 to 30 mg/kg, IG treated for 7 days consecutively followed by ISO administration daily for 2 days consecutively by H and E/Masson staining based analysis; assay type: functional, organism-based; settings: dose 10-30 mg/kg, time 9.0 day
[10] = tested on: H9c2; assay: Antioxidant activity against CoCl2-induced cellular hypoxia injury in rat H9c2 cells assessed as decrease in hypoxia-induced CK level at 5 to 10 uM incubated for 24 hrs; assay type: functional, cell-based; settings: dose 5-10 µM
[11] = tested on: H9c2; assay: Cardioprotective activity against CoCl2-induced cellular hypoxia injury in rat H9c2 cells assessed as rate of necrosis at 10 uM incubated for 24 hrs in presence of GSSG by flow cytometry (reference value: 22.5 %); assay type: functional
[12] = tested on: H9c2; assay: Cardioprotective activity against CoCl2-induced cellular hypoxia injury in rat H9c2 cells assessed as reduction in necrosis at 5 to 10 uM incubated for 24 hrs by flow cytometry; assay type: functional, cell-based; settings: dose 5-10 µM
[13] = tested on: H9c2; assay: Induction of H2S release in rat H9c2 cells incubated for 24 hrs by fluorescence based imaging analysis; assay type: functional, cell-based; settings: dose 0.625-10 µM
[14] = tested on: H9c2; assay: Cardioprotective activity against CoCl2-induced cellular hypoxia injury in rat H9c2 cells assessed as cell viability at 1.25 uM incubated for 24 hrs by CCK-8 assay (reference value: 51.80 +/- 2.58 %); assay type: functional; settings: read-out: Activity
[15] = tested on: Rattus norvegicus; assay: Cardioprotective activity in myocardial ischemia Sprague-Dawley rat model assessed as improvement in tissue clearance at 10 to 30 mg/kg, IG treated for 7 days consecutively followed by ISO administration daily for 2 days consecutively by H and E/Masson staining based analysis; assay type: functional, organism-based; settings: dose 10-30 mg/kg, time 9.0 day
[16] = target: T1, NAD-dependent protein deacetylase sirtuin-1 (Rattus norvegicus); assay: Activation of SIRT1 in CoCl2-induced cellular hypoxia injury in rat H9c2 cells at 10 uM incubated for 24 hrs in presence of GSSG by immunofluorescence based analysis; assay type: cell-based
[17] = tested on: Rattus norvegicus; assay: Cardioprotective activity in myocardial ischemia Sprague-Dawley rat model assessed as decrease in ISO-induced ST segment at 10 to 30 mg/kg, IG treated for 7 days consecutively followed by ISO administration daily for 2 days consecutively by ECG analysis; assay type: functional, organism-based; settings: dose 10-30 mg/kg, time 9.0 day
[18] = tested on: Rattus norvegicus; assay: Cardioprotective activity against myocardial ischemia Sprague-Dawley rat model assessed as increase in PGC1-alpha level in myocardial tissue at 10 to 30 mg/kg, IG treated for 7 days consecutively followed by ISO administration daily for 2 days consecutively by Western blot analysis; assay type: functional, organism-based; settings: dose 10-30 mg/kg, time 9.0 day
[19] = tested on: H9c2; assay: Cardioprotective activity against CoCl2-induced cellular hypoxia injury in rat H9c2 cells assessed as cell viability at 5 uM incubated for 24 hrs by CCK-8 assay (reference value: 51.80 +/- 2.58 %); assay type: functional; settings: read-out: Activity
[20] = tested on: H9c2; assay: Cardioprotective activity against CoCl2-induced cellular hypoxia injury in rat H9c2 cells assessed as mitochondrial membrane potential at 10 uM incubated for 24 hrs in presence of GSSG by JC-1 staining based analysis (reference value: 48.08 %); assay type: functional
[21] = Toxicity in myocardial ischemia Sprague-Dawley rat model assessed as change in body weight at 10 to 30 mg/kg, IG treated for 7 days consecutively followed by ISO administration daily for 2 days consecutively; assay type: organism-based; settings: in vivo, po, 216 h, dose 10-30 mg/kg, time 9 day
[22] = target: T1, NAD-dependent protein deacetylase sirtuin-1 (Rattus norvegicus); assay: Activation of SIRT1 in CoCl2-induced cellular hypoxia injury in rat H9c2 cells at 5 to 10 uM incubated for 24 hrs by Western blot analysis; assay type: cell-based; settings: filed as activator, dose 5-10 µM
[23] = tested on: H9c2; assay: Cardioprotective activity against CoCl2-induced cellular hypoxia injury in rat H9c2 cells assessed as reduction in apoptosis at 5 to 10 uM incubated for 24 hrs by flow cytometry; assay type: functional, cell-based; settings: dose 5-10 µM

C=CCSSCCC(=O)O[C@H]1CC[C@]2(C)[C@H]3C[C@@H](O)[C@@H]4[C@@H]([C@]5(C)CC[C@@H](C(C)(C)O)O5)CC[C@@]4(C)[C@]3(C)CC[C@H]2C1(C)C
Activity [1]: Active | Activity [2]: Active | Activity [3]: inactive | Activity [4]: Active | Activity [5]: Active | Activity [6]: 12.68% | viability at 0.625 µM [7]: 76.5% | Activity [8]: Active | Activity [9]: Active | Activity [10]: Active | Activity [11]: 7.54% | Activity [12]: Active | Activity [13]: Dose-dependent-effect | viability at 1.25 µM [14]: 85.7% | Activity [15]: Active | Activity [16]: inactive | Activity [17]: Active | Activity [18]: Active | viability at 5 µM [19]: 94.2% | Activity [20]: 61.96% | Activity [21]: Non-toxic | Activity [22]: Active | Activity [23]: Active
